Measured values taken from patent US8192962B2, “Processes for detecting toxic substances” (Daikin Industries, Ltd., priority 2001, dated 2012).

System: Transport facilitation protein genes
Assay: DNA chip mRNA expression in yeast, transport facilitation protein genes (Table 5)
Assay type: cell-based, Saccharomyces cerevisiae S288C
Outline: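 S. cerevisiae S288C grown at 25° C. in YPD to log phase, then exposed 2 h to a toxicant at a growth-inhibiting, non-lethal concentration; untreated cells as control. Poly(A) mRNA reverse-transcribed with Cy3-dUTP or Cy5-dUTP, hybridized >12 h at 65° C. to whole-genome yeast DNA chip; value = fluorescence ratio treated/untreated.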

CCCCC[C@H](O)CC(=O)CCc1ccc(O)c(OC)c1 [(13), gingerol]
The level of expressed mRNA in the presence of chemical substance/The level of expressed mRNA in the absence of chemical substance (yeast gene YHL036W): 1.5 | The level of expressed mRNA in the presence of chemical substance/The level of expressed mRNA in the absence of chemical substance (yeast gene YHL040C): 2.0 | The level of expressed mRNA in the presence of chemical substance/The level of expressed mRNA in the absence of chemical substance (yeast gene YHL047C): 3.8 | The level of expressed mRNA in the presence of chemical substance/The level of expressed mRNA in the absence of chemical substance (yeast gene YHR026W): 0.7 | The level of expressed mRNA in the presence of chemical substance/The level of expressed mRNA in the absence of chemical substance (yeast gene YHR048W): 1.1 | The level of expressed mRNA in the presence of chemical substance/The level of expressed mRNA in the absence of chemical substance (yeast gene YHR092C): 0.5 | The level of expressed mRNA in the presence of chemical substance/The level of expressed mRNA in the absence of chemical substance (yeast gene YHR094C): 0.7 | The level of expressed mRNA in the presence of chemical substance/The level of expressed mRNA in the absence of chemical substance (yeast gene YHR175W): 1.2 | The level of expressed mRNA in the presence of chemical substance/The level of expressed mRNA in the absence of chemical substance (yeast gene YIL006W): 0.8 | The level of expressed mRNA in the presence of chemical substance/The level of expressed mRNA in the absence of chemical substance (yeast gene YIL022W): 1.2 | The level of expressed mRNA in the presence of chemical substance/The level of expressed mRNA in the absence of chemical substance (yeast gene YIL056W): 1.5 | The level of expressed mRNA in the presence of chemical substance/The level of expressed mRNA in the absence of chemical substance (yeast gene YIL088C): 1.5 | The level of expressed mRNA in the presence of chemical substance/The level of expressed mRNA in the absence of chemical substance (yeast gene YJL212C): 1.0 | The level of expressed mRNA in the presence of chemical substance/The level of expressed mRNA in the absence of chemical substance (yeast gene YJR077C): 0.9 | The level of expressed mRNA in the presence of chemical substance/The level of expressed mRNA in the absence of chemical substance (yeast gene YJR095W): 0.8 | The level of expressed mRNA in the presence of chemical substance/The level of expressed mRNA in the absence of chemical substance (yeast gene YJR121W): 1.0 | The level of expressed mRNA in the presence of chemical substance/The level of expressed mRNA in the absence of chemical substance (yeast gene YKL016C): 1.3 | The level of expressed mRNA in the presence of chemical substance/The level of expressed mRNA in the absence of chemical substance (yeast gene YKL188C): 1.2 | The level of expressed mRNA in the presence of chemical substance/The level of expressed mRNA in the absence of chemical substance (yeast gene YKL217W): 1.2 | The level of expressed mRNA in the presence of chemical substance/The level of expressed mRNA in the absence of chemical substance (yeast gene YKL221W): 1.6 | The level of expressed mRNA in the presence of chemical substance/The level of expressed mRNA in the absence of chemical substance (yeast gene YKR039W): 1.3 | The level of expressed mRNA in the presence of chemical substance/The level of expressed mRNA in the absence of chemical substance (yeast gene YKR067W): 1.3 | The level of expressed mRNA in the presence of chemical substance/The level of expressed mRNA in the absence of chemical substance (yeast gene YKR105C): 2.5 | The level of expressed mRNA in the presence of chemical substance/The level of expressed mRNA in the absence of chemical substance (yeast gene YLL055W): 1.5 | The level of expressed mRNA in the presence of chemical substance/The level of expressed mRNA in the absence of chemical substance (yeast gene YLR081W): 0.6 | The level of expressed mRNA in the presence of chemical substance/The level of expressed mRNA in the absence of chemical substance (yeast gene YLR092W): 1.8 | The level of expressed mRNA in the presence of chemical substance/The level of expressed mRNA in the absence of chemical substance (yeast gene YLR295C): 0.8 | The level of expressed mRNA in the presence of chemical substance/The level of expressed mRNA in the absence of chemical substance (yeast gene YLR348C): 1.9 | The level of expressed mRNA in the presence of chemical substance/The level of expressed mRNA in the absence of chemical substance (yeast gene YLR378C): 1.6 | The level of expressed mRNA in the presence of chemical substance/The level of expressed mRNA in the absence of chemical substance (yeast gene YML116W): 0.8 | The level of expressed mRNA in the presence of chemical substance/The level of expressed mRNA in the absence of chemical substance (yeast gene YMR162C): 0.9 | The level of expressed mRNA in the presence of chemical substance/The level of expressed mRNA in the absence of chemical substance (yeast gene YNL055C): 2.4 | The level of expressed mRNA in the presence of chemical substance/The level of expressed mRNA in the absence of chemical substance (yeast gene YNR072W): 1.5 | The level of expressed mRNA in the presence of chemical substance/The level of expressed mRNA in the absence of chemical substance (yeast gene YOL119C): 1.6 | The level of expressed mRNA in the presence of chemical substance/The level of expressed mRNA in the absence of chemical substance (yeast gene YOL156W): 1.7 | The level of expressed mRNA in the presence of chemical substance/The level of expressed mRNA in the absence of chemical substance (yeast gene YOL158C): 1.4 | The level of expressed mRNA in the presence of chemical substance/The level of expressed mRNA in the absence of chemical substance (yeast gene YOL163W): 2.4 | The level of expressed mRNA in the presence of chemical substance/The level of expressed mRNA in the absence of chemical substance (yeast gene YOR035C): 2.5 | The level of expressed mRNA in the presence of chemical substance/The level of expressed mRNA in the absence of chemical substance (yeast gene YOR130C): 2.1 | The level of expressed mRNA in the presence of chemical substance/The level of expressed mRNA in the absence of chemical substance (yeast gene YOR153W): 11.8 | The level of expressed mRNA in the presence of chemical substance/The level of expressed mRNA in the absence of chemical substance (yeast gene YOR270C): 1.3 | The level of expressed mRNA in the presence of chemical substance/The level of expressed mRNA in the absence of chemical substance (yeast gene YOR273C): 2.6 | The level of expressed mRNA in the presence of chemical substance/The level of expressed mRNA in the absence of chemical substance (yeast gene YOR316C): 1.6 | The level of expressed mRNA in the presence of chemical substance/The level of expressed mRNA in the absence of chemical substance (yeast gene YOR332W): 2.2 | The level of expressed mRNA in the presence of chemical substance/The level of expressed mRNA in the absence of chemical substance (yeast gene YPL036W): 0.3 | The level of expressed mRNA in the presence of chemical substance/The level of expressed mRNA in the absence of chemical substance (yeast gene YPL134C): 1.0 | The level of expressed mRNA in the presence of chemical substance/The level of expressed mRNA in the absence of chemical substance (yeast gene YPL265W): 1.1 | The level of expressed mRNA in the presence of chemical substance/The level of expressed mRNA in the absence of chemical substance (yeast gene YPL271W): 1.2 | The level of expressed mRNA in the presence of chemical substance/The level of expressed mRNA in the absence of chemical substance (yeast gene YPR124W): 0.6 | The level of expressed mRNA in the presence of chemical substance/The level of expressed mRNA in the absence of chemical substance (yeast gene YPR194C): 1.0
